Measurements as given in patent US20200178527A1, “Method for Promoting Growth and Preservation Quality of Agaricus Bisporus” (Nanjing University of Finance & Economics, priority 2018, published 2020).

Key:
Agaricus bisporus [1] = test: Growth of Agaricus bisporus after spraying MeJA solution at mushroom bud stage; type: in vivo; settings: for Diameter of Pileus / Diameter of Stipe / Thickness of Pileus / Weight: 30 mL/m^2 spray
Protocol: Experiment of promoting the growth and preservation quality of Agaricus bisporus (1) An ethanol-water solvent with an ethanol concentration (by volume fraction) of 2% was prepared, and then the methyl jasmonate (MeJA) was dissolved in the ethanol-water solvent to prepare MeJA solutions at concentrations respectively of 10, 50, 100, and 200 μmol/L.
(2) The aforementioned MeJA solutions were each used as an inducer and poured into an automatic spraying device, and were each uniformly sprayed onto the surface of Agaricus bisporus when it was grown to the mushroom bud stage, where the spraying dose of 30 mL/m^2 was used as the treatment group. At the same time, the treatments with water and a 2% ethanol solution were as a blank group and a control group, respectively. The subsequent culturing conditions were 17° C. and a humidity of 90%.
(3) Photographing and sampling are performed every 24 h during the treatment. After sampling, the weight (m) of a single mushroom was weighed and recorded, and the diameter of pileus (a), the diameter of stipe (b) and the thickness of pileus (c) were measured with a microcalliper and recorded to calculate the average values, and the results were shown in Table 1.

Agaricus bisporus [2] = test: Post-harvest storage (preservation quality) of Agaricus bisporus at 4° C., relative humidity 90-95%; type: in vivo
Protocol: Experiment of promoting the growth and preservation quality of Agaricus bisporus (1) An ethanol-water solvent with an ethanol concentration (by volume fraction) of 2% was prepared, and then the methyl jasmonate (MeJA) was dissolved in the ethanol-water solvent to prepare MeJA solutions at concentrations respectively of 10, 50, 100, and 200 μmol/L. (2) The aforementioned MeJA solutions were each used as an inducer and poured into an automatic spraying device, and were each uniformly sprayed onto the surface of Agaricus bisporus when it was grown to the mushroom bud stage, where the spraying dose of 30 mL/m^2 was used as the treatment group. At the same time, the treatments with water and a 2% ethanol solution were as a blank group and a control group, respectively. The subsequent culturing conditions were 17° C. and a humidity of 90%. The Agaricus bisporus was stored under conditions of 4° C. and a relative humidity of 90-95% after harvested, so as to observe its appearance and quality, and the results were as shown in FIG. 2.

[3] = 10 μM MeJA, day 1 after treatment
[4] = 10 μM MeJA, day 2 after treatment
[5] = 50 μM MeJA, day 1 after treatment
[6] = 50 μM MeJA, day 2 after treatment
[7] = 100 μM MeJA, day 1 after treatment
[8] = 100 μM MeJA, day 2 after treatment
[9] = 200 μM MeJA, day 1 after treatment
[10] = 200 μM MeJA, day 2 after treatment
[11] = methyl jasmonate solution of 10-200 μmol/l sprayed at mushroom bud stage

CC/C=C\CC1C(=O)CCC1CC(=O)OC (stereo not drawn) [MeJA, methyl jasmonate]
Diameter of Pileus (Agaricus bisporus [1]; [3]): 20.21 ± 0.67 mm | Diameter of Stipe (Agaricus bisporus [1]; [3]): 12.60 ± 0.91 mm | Thickness of Pileus (Agaricus bisporus [1]; [3]): 12.07 ± 0.48 mm | Weight (Agaricus bisporus [1]; [3]): 3.83 ± 0.01 g | Diameter of Pileus (Agaricus bisporus [1]; [4]): 37.04 ± 0.47 mm | Diameter of Stipe (Agaricus bisporus [1]; [4]): 18.17 ± 0.60 mm | Thickness of Pileus (Agaricus bisporus [1]; [4]): 21.49 ± 0.50 mm | Weight (Agaricus bisporus [1]; [4]): 16.27 ± 0.27 g | Diameter of Pileus (Agaricus bisporus [1]; [5]): 24.29 ± 0.75 mm | Diameter of Stipe (Agaricus bisporus [1]; [5]): 13.91 ± 0.66 mm | Thickness of Pileus (Agaricus bisporus [1]; [5]): 14.80 ± 0.49 mm | Weight (Agaricus bisporus [1]; [5]): 6.81 ± 0.09 g | Diameter of Pileus (Agaricus bisporus [1]; [6]): 39.01 ± 0.67 mm | Diameter of Stipe (Agaricus bisporus [1]; [6]): 18.76 ± 0.38 mm | Thickness of Pileus (Agaricus bisporus [1]; [6]): 22.29 ± 0.21 mm | Weight (Agaricus bisporus [1]; [6]): 20.34 ± 0.20 g | Diameter of Pileus (Agaricus bisporus [1]; [7]): 20.52 ± 0.33 mm | Diameter of Stipe (Agaricus bisporus [1]; [7]): 14.14 ± 0.35 mm | Thickness of Pileus (Agaricus bisporus [1]; [7]): 12.28 ± 0.32 mm | Weight (Agaricus bisporus [1]; [7]): 3.69 ± 0.06 g | Diameter of Pileus (Agaricus bisporus [1]; [8]): 31.97 ± 0.78 mm | Diameter of Stipe (Agaricus bisporus [1]; [8]): 16.30 ± 0.82 mm | Thickness of Pileus (Agaricus bisporus [1]; [8]): 18.73 ± 0.82 mm | Weight (Agaricus bisporus [1]; [8]): 11.18 ± 0.10 g | Diameter of Pileus (Agaricus bisporus [1]; [9]): 20.79 ± 0.57 mm | Diameter of Stipe (Agaricus bisporus [1]; [9]): 13.56 ± 0.83 mm | Thickness of Pileus (Agaricus bisporus [1]; [9]): 12.70 ± 0.19 mm | Weight (Agaricus bisporus [1]; [9]): 3.48 ± 0.14 g | Diameter of Pileus (Agaricus bisporus [1]; [10]): 30.71 ± 0.69 mm | Diameter of Stipe (Agaricus bisporus [1]; [10]): 17.94 ± 0.39 mm | Thickness of Pileus (Agaricus bisporus [1]; [10]): 17.5 ± 0.48 mm | Weight (Agaricus bisporus [1]; [10]): 10.10 ± 0.14 g | effect on growth of Agaricus bisporus (Agaricus bisporus [1]; 10-100 μmol/L, compared with blank group and ethanol group (FIG. 1, Table 1)): significant effect of promoting the growth | improvement of yield (Agaricus bisporus [1]; [11]): 20%-25% | preserving effect on Agaricus bisporus (Agaricus bisporus [2]; 10-200 μmol/L, compared with blank group and ethanol group, storage at 4° C., RH 90-95% (FIG. 2)): significant preserving effect | extension of post-harvest storage time (Agaricus bisporus [2]; [11]): 2 to 4 days
